Assay results from PubChem BioAssay AID248 (DTP/NCI, 2004).
Several values for one entry are separate records, joined by “and”; a condition that tells them apart may be missing. Equal values may be shown once. Inconclusive results and toxic doses are left out. Cut-off read from the data, not from the text of the source: active = T/C of 150% or more; inactive = T/C below 125%.

Tested on: L1210 leukemia ip in BDF1 mice, survival T/C
Assay: NCI In Vivo Anticancer Drug Screen. Data for tumor model L1210 Leukemia (intraperitoneal) in B6D2F1 (BDF1) mice
Settings: endpoint: mean survival time, higher = longer survival
How it was run: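 Tumor was transplanted into mice, which were then dosed with test compound or vehicle alone. Survival was recorded for each group, and the treated figure was expressed relative to the control figure.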

[1] = dose: 100.0 mg/kg/injection, schedule: Q04DX002 (ip), vehicle: saline with Tween-80
[2] = dose: 200.0 mg/kg/injection, schedule: Q04DX002 (ip), vehicle: saline with Tween-80
[3] = dose: 400.0 mg/kg/injection, schedule: Q04DX002 (ip), vehicle: saline with Tween-80
[4] = dose: 25.0 mg/kg/injection, schedule: Q01DX009 (ip), vehicle: saline with Tween-80
[5] = dose: 50.0 mg/kg/injection, schedule: Q01DX009 (ip), vehicle: saline with Tween-80
[6] = dose: 100.0 mg/kg/injection, schedule: Q01DX009 (ip), vehicle: saline with Tween-80
[7] = dose: 100.0 mg/kg/injection, schedule: Q04DX003 (ip), vehicle: Klucel (hydroxypropylcellulose) (HPC)
[8] = dose: 200.0 mg/kg/injection, schedule: Q04DX003 (ip), vehicle: Klucel (hydroxypropylcellulose) (HPC)
[9] = dose: 400.0 mg/kg/injection, schedule: Q04DX003 (ip), vehicle: Klucel (hydroxypropylcellulose) (HPC)

Measured: T/C

COC(=O)[C@@]12OC[C@]34[C@H]([C@@H](O)[C@@H]1O)[C@@]1(C)CC(=O)C(O)=C(C)[C@@H]1C[C@H]3OC(=O)[C@H](OC(=O)/C=C(\C)C(C)C)[C@@H]24
inactive: dose: 0.03 mg/kg/injection, schedule: Q01DX009 (ip), vehicle: other 111 % of control | dose: 0.03 mg/kg/injection, schedule: Q01DX009 (ip), vehicle: saline with Tween-80 111 % of control | dose: 0.03 mg/kg/injection, schedule: Q03HX024 (ip), vehicle: other 107 % of control | dose: 0.03 mg/kg/injection, schedule: Q03HX024 (ip), vehicle: saline with Tween-80 108 % of control | dose: 0.06 mg/kg/injection, schedule: Q01DX009 (ip), vehicle: other 111 % of control and 116 % of control | dose: 0.06 mg/kg/injection, schedule: Q01DX009 (ip), vehicle: saline with Tween-80 110 % of control and 120 % of control | dose: 0.06 mg/kg/injection, schedule: Q03HX024 (ip), vehicle: other 107 % of control | dose: 0.06 mg/kg/injection, schedule: Q03HX024 (ip), vehicle: saline with Tween-80 114 % of control | dose: 0.12 mg/kg/injection, schedule: Q01DX009 (ip), vehicle: other 118 % of control and 123 % of control | dose: 0.12 mg/kg/injection, schedule: Q01DX009 (ip), vehicle: saline with Tween-80 117 % of control | dose: 0.12 mg/kg/injection, schedule: Q03HX024 (ip), vehicle: other 121 % of control | dose: 0.12 mg/kg/injection, schedule: Q03HX024 (ip), vehicle: saline with Tween-80 116 % of control | dose: 0.25 mg/kg/injection, schedule: Q01DX009 (ip), vehicle: saline with Tween-80 121 % of control | dose: 0.25 mg/kg/injection, schedule: Q03HX024 (ip), vehicle: other 121 % of control | dose: 0.5 mg/kg/injection, schedule: Q01DX009 (ip), vehicle: other 117 % of control | dose: 0.5 mg/kg/injection, schedule: Q01DX009 (ip), vehicle: saline with Tween-80 123 % of control | dose: 0.6 mg/kg/injection, schedule: Q01DX009 (ip), vehicle: saline + alcohol 96 % of control | dose: 0.8 mg/kg/injection, schedule: Q01DX009 (ip), vehicle: saline + alcohol 112 % of control | dose: 1.0 mg/kg/injection, schedule: Q01DX009 (ip), vehicle: other 122 % of control | dose: 1.3 mg/kg/injection, schedule: Q01DX009 (ip), vehicle: saline + alcohol 114 % of control | dose: 2.0 mg/kg/injection, schedule: Q01DX009 (ip), vehicle: saline + alcohol 123 % of control | dose: 8.0 micrograms/kg/injection, schedule: Q01DX009 (ip), vehicle: saline + alcohol 91 % of control | dose: 16.0 micrograms/kg/injection, schedule: Q01DX009 (ip), vehicle: saline + alcohol 100 % of control | dose: 31.0 micrograms/kg/injection, schedule: Q01DX009 (ip), vehicle: saline + alcohol 109 % of control | dose: 62.0 micrograms/kg/injection, schedule: Q01DX009 (ip), vehicle: saline + alcohol 114 % of control | dose: 250.0 micrograms/kg/injection, schedule: Q01DX009 (ip), vehicle: saline + alcohol 115 % of control | dose: 500.0 micrograms/kg/injection, schedule: Q01DX009 (ip), vehicle: saline + alcohol 114 % of control | dose: 1000.0 micrograms/kg/injection, schedule: Q01DX009 (ip), vehicle: saline + alcohol 120 % of control | dose: 2000.0 micrograms/kg/injection, schedule: Q01DX009 (ip), vehicle: saline + alcohol 117 % of control

c1ccc(CCNc2ccc(NCCc3ccccc3)cc2)cc1
inactive: dose: 75.0 mg/kg/injection, schedule: Q01DX001 (ip), vehicle: Klucel (hydroxypropylcellulose) (HPC) 92 % of control | dose: 75.0 mg/kg/injection, schedule: Q01DX009 (ip), vehicle: Klucel (hydroxypropylcellulose) (HPC) 97 % of control | dose: 150.0 mg/kg/injection, schedule: Q01DX001 (ip), vehicle: Klucel (hydroxypropylcellulose) (HPC) 106 % of control | dose: 150.0 mg/kg/injection, schedule: Q01DX009 (ip), vehicle: Klucel (hydroxypropylcellulose) (HPC) 100 % of control | dose: 300.0 mg/kg/injection, schedule: Q01DX001 (ip), vehicle: Klucel (hydroxypropylcellulose) (HPC) 97 % of control | dose: 300.0 mg/kg/injection, schedule: Q01DX009 (ip), vehicle: Klucel (hydroxypropylcellulose) (HPC) 106 % of control

CCN(CC)S(=O)(=O)NC1C(=O)N(c2ccccc2)N(C)C1C (stereo unspecified)
inactive: [1] 104 % of control | [2] 101 % of control | [3] 104 % of control

C[N+]1(CC2CO2)CCOCC1 (stereo unspecified)
inactive: dose: 75.0 mg/kg/injection, schedule: Q01DX001 (ip), vehicle: saline 109 % of control | dose: 150.0 mg/kg/injection, schedule: Q01DX001 (ip), vehicle: saline 106 % of control | dose: 300.0 mg/kg/injection, schedule: Q01DX001 (ip), vehicle: saline 96 % of control

Clc1ccc2c(c1)C(Br)c1cc(Cl)cc(Cl)c1-2 (stereo unspecified)
inactive: [4] 102 % of control | dose: 25.0 mg/kg/injection, schedule: Q04DX003 (ip), vehicle: saline 102 % of control | [5] 94 % of control | dose: 50.0 mg/kg/injection, schedule: Q04DX003 (ip), vehicle: saline 102 % of control | dose: 100.0 mg/kg/injection, schedule: Q01DX001 (ip), vehicle: acetone 94 % of control | [6] 93 % of control | dose: 100.0 mg/kg/injection, schedule: Q04DX003 (ip), vehicle: saline 91 % of control

Nc1c(Br)cc(F)cc1[N+](=O)[O-]
inactive: [7] 97 % of control | [8] 96 % of control | [9] 96 % of control

Sc1cccc2c(S)cccc12
inactive: dose: 50.0 mg/kg/injection, schedule: Q01DX001 (ip), vehicle: carboxymethylcellulose (CMC) 100 % of control | dose: 100.0 mg/kg/injection, schedule: Q01DX001 (ip), vehicle: carboxymethylcellulose (CMC) 97 % of control | dose: 200.0 mg/kg/injection, schedule: Q01DX001 (ip), vehicle: carboxymethylcellulose (CMC) 103 % of control | dose: 400.0 mg/kg/injection, schedule: Q01DX001 (ip), vehicle: carboxymethylcellulose (CMC) 100 % of control

CN(C)/C=N\c1ncnc2c1ncn2C1OC(CO)C2OC(C)(C)OC21 (stereo unspecified)
inactive: dose: 100.0 mg/kg/injection, schedule: Q01DX005 (ip), vehicle: saline 104 % of control | dose: 200.0 mg/kg/injection, schedule: Q01DX005 (ip), vehicle: saline 103 % of control

CCOC(=O)C(C)Cl (stereo unspecified)
inactive: dose: 100.0 mg/kg/injection, schedule: Q01DX009 (ip), vehicle: Klucel (hydroxypropylcellulose) (HPC) 97 % of control | [7] 103 % of control | dose: 200.0 mg/kg/injection, schedule: Q01DX009 (ip), vehicle: Klucel (hydroxypropylcellulose) (HPC) 96 % of control | [8] 103 % of control | [9] 103 % of control

Cc1nc(C)c(Br)s1
inactive: [4] 97 % of control | [5] 96 % of control | [6] 112 % of control | dose: 100.0 mg/kg/injection, schedule: Q04DX003 (ip), vehicle: saline with Tween-80 105 % of control | dose: 200.0 mg/kg/injection, schedule: Q04DX003 (ip), vehicle: saline with Tween-80 110 % of control

O=C(CCc1ccccc1)Nc1ccc(F)cc1
inactive: dose: 100.0 mg/kg/injection, schedule: Q01DX001 (ip), vehicle: saline with Tween-80 95 % of control | [6] 97 % of control and 106 % of control | [1] 94 % of control and 98 % of control | dose: 200.0 mg/kg/injection, schedule: Q01DX001 (ip), vehicle: saline with Tween-80 95 % of control | dose: 200.0 mg/kg/injection, schedule: Q01DX009 (ip), vehicle: saline with Tween-80 93 % of control and 95 % of control | [2] 94 % of control and 102 % of control | dose: 400.0 mg/kg/injection, schedule: Q01DX001 (ip), vehicle: saline with Tween-80 94 % of control | dose: 400.0 mg/kg/injection, schedule: Q01DX009 (ip), vehicle: saline with Tween-80 98 % of control and 101 % of control | [3] 94 % of control and 97 % of control
